Drawing on patent US9676754B2, “Triazolone compounds and uses thereof” (Inception 2, Inc., priority 2012, dated 2017), this text covers IC50 for 5 molecules.

The target in the test is T1, Human PPARα (Homo sapiens, UniProt Q07869).
T1 construct: host or cells: proprietary non-human mammalian cells
T1 sequence (Q07869 1-468): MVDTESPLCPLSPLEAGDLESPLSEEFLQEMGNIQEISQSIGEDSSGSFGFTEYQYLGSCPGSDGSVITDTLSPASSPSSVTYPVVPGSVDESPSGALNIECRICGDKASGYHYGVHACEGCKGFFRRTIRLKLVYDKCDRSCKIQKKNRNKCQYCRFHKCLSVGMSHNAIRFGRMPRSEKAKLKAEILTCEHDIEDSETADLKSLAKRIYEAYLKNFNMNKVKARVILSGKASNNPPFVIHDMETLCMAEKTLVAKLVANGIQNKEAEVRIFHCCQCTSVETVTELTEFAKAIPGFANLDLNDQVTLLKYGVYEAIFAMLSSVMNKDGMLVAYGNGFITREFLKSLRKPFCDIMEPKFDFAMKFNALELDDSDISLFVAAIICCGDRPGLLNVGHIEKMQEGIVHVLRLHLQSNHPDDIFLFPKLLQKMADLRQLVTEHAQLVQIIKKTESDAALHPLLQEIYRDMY
As to the kind of experiment: Human PPARα Reporter Assay (luciferase). Type of test: cell-based. The note with it: antagonist activity, luciferase reporter cells, overnight incubation; read-out: Human PPARα Reporter Assay-Luciferase IC50. How it is done: Human PPARα Reporter Assay
The screening of test compounds for agonist or antagonist activities against human PPARα receptors was performed using a commercial kit, Human PPARα Reporter Assay System (Indigo Biosciences, Cat. #IB00111).
This nuclear receptor assay system utilizes proprietary non-human mammalian cells engineered to provide constitutive, high-level expression of Human PPARα. Because these cells incorporate a PPARα-responsive luciferase reporter gene, quantifying expressed luciferase activity provides a sensitive surrogate measure of PPARα activity in the treated cells. The primary application of this reporter assay system is in the screening of test samples to quantify any functional activity, either agonist or antagonist, that they may exert against human PPARα. […] Briefly, the reporter cells are dispensed into wells of the assay plate and then immediately dosed with test compounds. Following an overnight incubation, the treatment media are discarded and Luciferase Detection Reagent (LDR) is added. The intensity of light emission from the ensuing luciferase reaction provides a sensitive measure that is directly proportional to the relative level of PPARα activation in the reporter cells.
(A reporter such as luciferase makes a cellular process visible.)
For orientation: IC50 means the concentration that inhibits the measured activity by half. For the molecule `CCOc1ccc(-c2nccc(CCCc3nn(Cc4ccc(C(C)(C)C)cc4)c(=O)n3CC)n2)cc1CC(=O)O` [Example 26, 2-(5-(4-(3-(1-(4-(tert-Butyl)benzyl)-4-ethyl-5-oxo-4,5-dihydro-1H-1,2,4-triazol-3-yl)propyl)pyrimidin-2-yl)-2-ethoxyphenyl)acetic acid], the IC50 came to 1240 nM. For `CCOc1ccc(-c2cc(CCCc3nn(Cc4ccc(C(C)(C)C)cc4)c(=O)n3CC)ncn2)cc1CC(=O)O` [Example 27, 2-(5-(6-(3-(1-(4-(tert-Butyl)benzyl)-4-ethyl-5-oxo-4,5-dihydro-1H-1,2,4-triazol-3-yl)propyl)pyrimidin-4-yl)-2-ethoxyphenyl)acetic acid] the value was 3430 nM; for `CCn1c(CCCc2cccc(-c3ccc(CC(=O)O)c(OC)c3)c2)nn(Cc2ccc(C(C)(C)C)cc2)c1=O` [Example 28, (3′-(3-(1-(4-(tert-Butyl)benzyl)-4-ethyl-5-oxo-4,5-dihydro-1H-1,2,4-triazol-3-yl)propyl)-3-methoxy-[1,1′-biphenyl]-4-yl)acetic acid], 140 nM; for `CCOc1cc(-c2cccc(CCCc3nn(Cc4ccc(C(C)(C)C)cc4)c(=O)n3CC)c2)ccc1CC(=O)O` [Example 29, (3′-(3-(1-(4-(tert-Butyl)benzyl)-4-ethyl-5-oxo-4,5-dihydro-1H-1,2,4-triazol-3-yl)propyl)-3-ethoxy-[1,1′-biphenyl]-4-yl)acetic acid], 59 nM. On to `CCCOc1cc(-c2cccc(CCCc3nn(Cc4ccc(C(C)(C)C)cc4)c(=O)n3CC)c2)ccc1CC(=O)O` [Example 30, (3′-(3-(1-(4-(tert-Butyl)benzyl)-4-ethyl-5-oxo-4,5-dihydro-1H-1,2,4-triazol-3-yl)propyl)-3-propoxy-[1,1′-biphenyl]-4-yl)acetic acid], for which the half-maximal inhibitory concentration (IC50) worked out at 36 nM.
